Patent publication US7973050B2, “Enantiomeric compounds with antibacterial activity” (Crestone, Inc., priority 2006, dated 2011)
Values after ≈ are worked out from the molar mass of the structure shown. Where a name gives a salt, the structure may show the parent alone. Read-outs that look alike come from different tables or passages of the source.

Assays:
[1] = target: Clostridium difficile MetRS (Clostridioides difficile, UniProt Q181D9, C642S); assay: C. difficile MetRS inhibition (tRNA charging SPA assay); assay type: biochemical
Clostridium difficile MetRS, sequence (Q181D9 2-645 C642S): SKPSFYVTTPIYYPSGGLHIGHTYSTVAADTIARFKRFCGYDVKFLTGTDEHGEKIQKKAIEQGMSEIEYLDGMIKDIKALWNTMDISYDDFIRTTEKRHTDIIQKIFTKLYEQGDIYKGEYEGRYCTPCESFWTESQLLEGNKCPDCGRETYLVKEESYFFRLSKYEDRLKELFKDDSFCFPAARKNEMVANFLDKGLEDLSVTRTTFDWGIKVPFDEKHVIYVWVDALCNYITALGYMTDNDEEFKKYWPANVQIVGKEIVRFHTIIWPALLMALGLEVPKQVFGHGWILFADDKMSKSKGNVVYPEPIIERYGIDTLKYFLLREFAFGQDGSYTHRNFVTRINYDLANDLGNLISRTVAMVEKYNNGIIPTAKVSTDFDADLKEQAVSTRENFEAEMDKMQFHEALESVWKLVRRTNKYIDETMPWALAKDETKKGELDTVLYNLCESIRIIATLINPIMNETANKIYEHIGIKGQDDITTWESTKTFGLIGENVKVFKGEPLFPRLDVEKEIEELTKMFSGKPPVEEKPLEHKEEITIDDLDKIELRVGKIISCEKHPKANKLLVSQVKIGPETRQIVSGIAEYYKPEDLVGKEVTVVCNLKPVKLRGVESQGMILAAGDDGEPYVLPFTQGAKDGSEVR
Protocol: Compounds of the present invention were assayed to determine their ability to inhibit MetRS. Assays were performed as follows:
Each reaction was started by adding 20 μl appropriately diluted pure enzyme (pre-incubated with inhibitor) to 25 μl reaction mix for 10 min at room temperature. The reaction is terminated by the addition of 150 μl 167 mM sodium citrate, pH 2.15 containing phosphodiesterase (PDE) SPA beads (0.833 mg/ml). The binding of the radiolabelled product to the bead brings the isotope into close enough proximity to allow radiation from the tritium to excite the scintillant within the bead. Any unbound radiolabel is not close enough to the scintillant to allow this energy transfer, so no signal is generated. Following termination of the reaction, plates are spun at 2500 rpm for 5 min in a Mistral 3000E plate centrifuge (or alternatively allowed to stand for 1 hour). The assay is conducted in 96-well Optiplates (Packard). Plates are counted on a TopCount. (Packard 96 well counter).
Mixed E. coli MRE 600 tRNA and ATP were purchased from Boehringer-Mannheim, L-[methyl-^3H]methionine and phosphodiesterase scintillation proximity (SPA) beads from Amersham Pharmacia Biotech and other reagents from Sigma.

rat MetRS = assay: Mammalian MetRS inhibition (selectivity); assay type: biochemical; conditions: mammalian enzyme
C. difficile [2] = assay: MIC90 against C. difficile clinical isolates, agar dilution (CLSI); assay type: cell-based; conditions: Clostridioides difficile, read-out: MIC90 against Clostridium difficile
C. difficile [3] = assay: C. difficile-infected hamster survival study; assay type: in vivo
Protocol: Animal studies were performed to determine the efficacy of MetRS inhibitors for treating C. difficile-infections. The MetRS inhibitors tested were 5-[3-((R)-6,8-Dibromo-chroman-4-ylamino)-propylamino]-4H-thieno[3,2-b]pyridine-7-one (both racemic mixture and the R enantiomer) and 5-[3-((R)-8-Bromo-6-chloro-chroman-4-ylamino)-propylamino]-4H-thieno[3,2-b]pyridin-7-one. Also tested was 2-(3-{3,5-Dibromo-2-[2-(4-methyl-thiazol-5-yl)-ethoxy]-benzylamino}-propylamino)-1H-quinolin-4-one.
Results were compared to C. difficile-infected hamsters treated with the conventional antibiotic, vancomycin. Infected hamsters were treated with either a solution or suspension of a MetRS inhibitor at 5 to 50 mg/kg or vancomycin at 2.5, 5 or 25 mg/kg. There were eight hamsters per group with the final endpoint of the experiment being survival. Expired hamsters were examined for GI condition.

[4] = tested on: C. difficile clinical isolates (spore production); assay: C. difficile sporulation on agar with subMIC drug; assay type: cell-based, Clostridium difficile; conditions: 96 hours
[5] = range stated for the group of listed examples, read-out: Ki, inhibition of Clostridium difficile MetRS
[6] = agar dilution, clinical isolates, 24 hours at 35° C. anaerobic, range stated for the group

O=c1cc(NCCCN[C@@H]2CCCc3c(Br)cc(Br)cc32)[nH]c2ccsc12 [Example 10, 5-[3-((R)-5,7-Dibromo-1,2,3,4-tetrahydro-naphthalen-1-ylamino)-propylamino]-4H-thieno[3,2-b]pyridine-7-one]
Ki [1, 5]: 0.015 to 0.025 nM
inhibition of mammalian (rat) MetRS (rat MetRS): no inhibition
MIC90 (C. difficile [2]; [6]): 0.25 to 4 µg/mL (≈ 0.489 to 7.82 µM)

O=c1cc(NCCCN[C@H]2CCOc3c(Br)cc(Br)cc32)[nH]c2ccccc12 (single isomer, unassigned) [Example 7, di-hydrochloride]
Ki [1]: 24 to 80 nM

O=c1cc(NCCCN[C@H]2CCNc3c(Br)cc(Br)cc32)[nH]c2ccsc12 (single isomer, unassigned) [Example 9, tri-hydrochloride]
Ki [1]: 24 to 80 nM

O=c1cc(NCCCN[C@@H]2CCNc3c(Br)cc(Br)cc32)[nH]c2ccsc12 (single isomer, unassigned) [Example 8, tri-hydrochloride]
Ki [1]: 0.015 to 0.025 nM
inhibition of mammalian (rat) MetRS (rat MetRS): no inhibition
MIC90 (C. difficile [2]; 24 h): 0.25 to 4 µg/mL

O=c1cc(NCCCN[C@H]2CCOc3c(Br)cc(Br)cc32)[nH]c2ccsc12 (single isomer, unassigned) [Example 3, di-hydrochloride]
Ki [1]: 24 to 80 nM

O=c1cc(NCCCN[C@@H]2COc3c(Br)cc(Br)cc32)[nH]c2ccsc12 [Example 11, 5-[3-((S)-5,7-Dibromo-2,3-dihydro-benzofuran-3-ylamino)-propylamino]-4H-thieno[3,2-b]pyridine-7-one]
Ki [1, 5]: 0.015 to 0.025 nM
inhibition of mammalian (rat) MetRS (rat MetRS): no inhibition
MIC90 (C. difficile [2]; [6]): 0.25 to 4 µg/mL (≈ 0.501 to 8.01 µM)

O=c1cc(NCCCN[C@H]2COc3c(Br)cc(Br)cc32)[nH]c2ccsc12 [Example 12, 5-[3-((R)-5,7-Dibromo-2,3-dihydro-benzofuran-3-ylamino)-propylamino]-4H-thieno[3,2-b]pyridine-7-one]
Ki [1, 5]: 24 to 80 nM

O=c1cc(NCCCN[C@@H]2CCOc3c(Br)cc(Br)cc32)[nH]c2ccccc12 (single isomer, unassigned) [Example 6, di-hydrochloride]
Ki [1]: 0.015 to 0.025 nM
inhibition of mammalian (rat) MetRS (rat MetRS): no inhibition
MIC90 (C. difficile [2]; 24 h): 0.25 to 4 µg/mL

CN[C@H](CC(C)C)C(=O)N[C@H]1C(=O)N[C@@H](CC(N)=O)C(=O)N[C@H]2C(=O)N[C@H]3C(=O)N[C@H](C(=O)N[C@H](C(=O)O)c4cc(O)cc(O)c4-c4cc3ccc4O)[C@H](O)c3ccc(c(Cl)c3)Oc3cc2cc(c3O[C@@H]2O[C@H](CO)[C@@H](O)[C@H](O)[C@H]2O[C@H]2C[C@](C)(N)[C@H](O)[C@H](C)O2)Oc2ccc(cc2Cl)[C@H]1O [vancomycin, reference compound]
survival on Day 28 (vancomycin comparator) (C. difficile [3]; C. difficile-infected hamsters, vancomycin at 2.5, 5 or 25 mg/kg): 0-10%

Cc1ncc([N+](=O)[O-])n1CCO [metronidazole, reference compound]
spores after exposure to subMIC concentrations ([4]; all tested strains, subMIC): up to 100%

O=c1cc(NCCCN[C@@H]2CCOc3c(Br)cc(Cl)cc32)[nH]c2ccsc12 (single isomer, unassigned) [Example 4, di-hydrochloride]
Ki [1]: 0.015 to 0.025 nM
inhibition of mammalian (rat) MetRS (rat MetRS): no inhibition
MIC90 (C. difficile [2]; 24 h): 0.25 to 4 µg/mL

O=c1cc(NCCCN[C@H]2CCOc3c(Br)cc(Cl)cc32)[nH]c2ccsc12 (single isomer, unassigned) [Example 5, di-hydrochloride]
Ki [1]: 24 to 80 nM

O=c1cc(NCCCN[C@@H]2CCOc3c(Br)cc(Br)cc32)[nH]c2ccsc12 (single isomer, unassigned) [Example 2, di-hydrochloride]
Ki [1]: 0.015 to 0.025 nM
inhibition of mammalian (rat) MetRS (rat MetRS): no inhibition
MIC90 (C. difficile [2]; [6]): 0.25 to 4 µg/mL
efficacy (survival) in infected hamsters, in words (C. difficile [3]; MetRS inhibitor at 5 to 50 mg/kg, solution or suspension): best efficacy
spores (ratio of spores to total cells) at 0.25×MIC ([4]; all strains, 0.25×MIC): < 2%
spores (ratio of spores to total cells) at 0.5×MIC ([4]; all strains, 0.5×MIC): < 1%
effect on spore production, in words ([4]; subMIC concentrations): effective in preventing vegetative cells of C. difficile from forming spores
